Laboratory results reported in patent US20230241050A1, “APPLICATIONS OF HPK1 KINASE INHIBITOR IN PREVENTING AND/OR TREATING ANIMAL PATHOGEN INFECTION” (ZHUHAI YUFAN BIOTECHNOLOGIES CO., LTD, priority 2020, published 2023).

Tests used:
[1] = test system: feline infectious peritonitis (FIP); assay: Clinical survival of cats with clinically confirmed FIP, treatment group vs control group (Example 2); assay type: in vivo, cat; details: 14 days; 2.0 mg/kg SC q24h D1-D14 plus supportive treatment, 7 cats vs 8 control cats; both pre-treated with GS-441524 for 3 days; Log Rank and Breslow tests, P < 0.05
Text: A total of 15 cats with clinically confirmed FIP were enrolled, with hydrothorax/ascites, positive CT value by PCR, and no neurological symptoms. 8 cats were allocated into the control group, and 7 cats were allocated into the treatment group.
The groups were pre-treated with GS-441524 for 3 days. For the control group, necessary supportive treatment was given on D1-D14. For the treatment group, after 3 days of observation, necessary supportive treatment and the drug of the present invention (2.0 mg/kg, SC, q24 h) were given on D1-D14.
The occurrence of death or neurological symptoms was judged as clinical death, and the clinical survival curve was plotted after 14 days.

[2] = test system: feline infectious peritonitis (FIP), feline coronavirus positive; assay: Treatment of a cat with recurrent feline infectious peritonitis (Example 1): daily clinical observation, body weight, chest X-ray; assay type: in vivo; details: for Food intake: D0: Decreased intake - 3; for Mental state: D0: Listless - 3; for Defecation condition / Respiratory state: D0: Normal - 5; for Body temperature Afternoon: D0 value 38.5; for body weight: 2.5 kg at enrollment (D0)
Method: Lele, a British shorthair cat, 8 months old, female, unneutered, weighing 2.5 kg. The cat had symptoms of elevated body temperature, mental depression, anorexia, and enlarged abdominal circumference in January, 2020. One week later, the cat was admitted. On January 18, the cat was diagnosed with feline infectious peritonitis (FIP) positive. After being treated with GS-441524 for 3 days, the cat was then given furosemide, Synulox®, prednisolone and itraconazole (P.O., q24h, 10 mg/kg) for 1 month. The drugs were discontinued after ascites regressed. […] The cat was enrolled on April 8, and was treated with the drug of the present invention at 2.0 mg/kg (SC, q24h) on days 1-14 (D1-14). Proper supportive treatments were given at the same time, including adjuvant treatment such as Moringa (a hepatoprotective drug), Lysinphirst (lysine) and Doctor Dolittle® (lactoferrin).
The pharmaceutically active compound described above is a pure powder have the following structure. The compound was added to a 0.9% normal saline (50 mL of endotoxin-free water and 0.45 g of NaCl), and the resulting mixture was uniformly mixed and filtered through a filter membrane to give a clarified solution. The diluted compound was stored in a plastic-sealed sterile vial, stored in a refrigerator at 4° C., gently brought to room temperature before injection, and administered using a disposable syringe. The injection ranged across the back, starting from 2 cm posterior to the scapula to the middle of the lumbar spine, half of the distance of the adjacent chest to flank.
The treatment was given by injection in the morning every day, body temperature, appetite, mental state and respiratory state were measured and evaluated at 15:00 pm, and urination and defecation conditions were recorded.
The body weight increased by 9% during and after the treatment.

CN1CCC(c2ncc(-c3cnc(N)c(OCc4cccc(C#CC(C)(C)O)c4)c3)s2)CC1 [the drug of the present invention, 4-(3-{2-amino-5-[2-(1-methyl-piperidin-4-yl)thiazol-5-yl]pyridin-3-yloxymethyl}phenyl)-2-methyl-but-3-yn-2-ol]
clinical survival curve (death or neurological symptoms = clinical death), treatment group vs control group [1]: significant difference | Food intake ([2]; D1 (4-9), 2.0 mg/kg SC q24h): Decreased intake - 3 | Mental state ([2]; D1 (4-9), 2.0 mg/kg SC q24h): Slightly improved - 3.5 | Defecation condition ([2]; D1 (4-9), 2.0 mg/kg SC q24h): Normal | Respiratory state ([2]; D1 (4-9), 2.0 mg/kg SC q24h): Normal | Body temperature Afternoon ([2]; D1 (4-9), 2.0 mg/kg SC q24h): 38.6 °C | Food intake ([2]; D2 (4-10), 2.0 mg/kg SC q24h): Improved - 4 | Mental state ([2]; D2 (4-10), 2.0 mg/kg SC q24h): Improved - 4 | Defecation condition ([2]; D2 (4-10), 2.0 mg/kg SC q24h): Normal | Respiratory state ([2]; D2 (4-10), 2.0 mg/kg SC q24h): Normal | Body temperature Afternoon ([2]; D2 (4-10), 2.0 mg/kg SC q24h): 38.1 °C | Food intake ([2]; D3 (4-11), 2.0 mg/kg SC q24h): Good - 5 | Mental state ([2]; D3 (4-11), 2.0 mg/kg SC q24h): Good - 5 | Defecation condition ([2]; D3 (4-11), 2.0 mg/kg SC q24h): Normal | Respiratory state ([2]; D3 (4-11), 2.0 mg/kg SC q24h): Normal | Body temperature Afternoon ([2]; D3 (4-11), 2.0 mg/kg SC q24h): 38 °C | Food intake ([2]; D4 (4-12), 2.0 mg/kg SC q24h): Good | Mental state ([2]; D4 (4-12), 2.0 mg/kg SC q24h): Good | Defecation condition ([2]; D4 (4-12), 2.0 mg/kg SC q24h): Normal | Respiratory state ([2]; D4 (4-12), 2.0 mg/kg SC q24h): Normal | Body temperature Afternoon ([2]; D4 (4-12), 2.0 mg/kg SC q24h): 38.3 °C | Food intake ([2]; D5 (4-13), 2.0 mg/kg SC q24h): Good | Mental state ([2]; D5 (4-13), 2.0 mg/kg SC q24h): Good | Defecation condition ([2]; D5 (4-13), 2.0 mg/kg SC q24h): Normal | Respiratory state ([2]; D5 (4-13), 2.0 mg/kg SC q24h): Normal | Body temperature Afternoon ([2]; D5 (4-13), 2.0 mg/kg SC q24h): 38.3 °C | Food intake ([2]; D6 (4-14), 2.0 mg/kg SC q24h): Good | Mental state ([2]; D6 (4-14), 2.0 mg/kg SC q24h): Good | Defecation condition ([2]; D6 (4-14), 2.0 mg/kg SC q24h): Normal | Respiratory state ([2]; D6 (4-14), 2.0 mg/kg SC q24h): Normal | Body temperature Afternoon ([2]; D6 (4-14), 2.0 mg/kg SC q24h): 38.3 °C | body weight ([2]; D7 (4-15), 2.0 mg/kg SC q24h): 2.75 kg body weight | Food intake ([2]; D7 (4-15), 2.0 mg/kg SC q24h): Good | Mental state ([2]; D7 (4-15), 2.0 mg/kg SC q24h): Good | Defecation condition ([2]; D7 (4-15), 2.0 mg/kg SC q24h): Normal | Respiratory state ([2]; D7 (4-15), 2.0 mg/kg SC q24h): Normal | Body temperature Afternoon ([2]; D7 (4-15), 2.0 mg/kg SC q24h): 38.1 °C | Food intake ([2]; D8 (4-16), 2.0 mg/kg SC q24h): Good | Mental state ([2]; D8 (4-16), 2.0 mg/kg SC q24h): Good | Defecation condition ([2]; D8 (4-16), 2.0 mg/kg SC q24h): Normal | Respiratory state ([2]; D8 (4-16), 2.0 mg/kg SC q24h): Normal | Body temperature Afternoon ([2]; D8 (4-16), 2.0 mg/kg SC q24h): 38 °C | Food intake ([2]; D9 (4-17), 2.0 mg/kg SC q24h): Good | Mental state ([2]; D9 (4-17), 2.0 mg/kg SC q24h): Good | Defecation condition ([2]; D9 (4-17), 2.0 mg/kg SC q24h): Normal | Respiratory state ([2]; D9 (4-17), 2.0 mg/kg SC q24h): Normal | Body temperature Afternoon ([2]; D9 (4-17), 2.0 mg/kg SC q24h): 38.2 °C | Food intake ([2]; D10 (4-18), 2.0 mg/kg SC q24h): Good | Mental state ([2]; D10 (4-18), 2.0 mg/kg SC q24h): Good | Defecation condition ([2]; D10 (4-18), 2.0 mg/kg SC q24h): Normal | Respiratory state ([2]; D10 (4-18), 2.0 mg/kg SC q24h): Normal | Body temperature Afternoon ([2]; D10 (4-18), 2.0 mg/kg SC q24h): 38.3 °C | Food intake ([2]; D11 (4-19), 2.0 mg/kg SC q24h): Good | Mental state ([2]; D11 (4-19), 2.0 mg/kg SC q24h): Good | Defecation condition ([2]; D11 (4-19), 2.0 mg/kg SC q24h): Normal | Respiratory state ([2]; D11 (4-19), 2.0 mg/kg SC q24h): Normal | Body temperature Afternoon ([2]; D11 (4-19), 2.0 mg/kg SC q24h): 38.4 °C | Food intake ([2]; D12 (4-20), 2.0 mg/kg SC q24h): Good | Mental state ([2]; D12 (4-20), 2.0 mg/kg SC q24h): Good | Defecation condition ([2]; D12 (4-20), 2.0 mg/kg SC q24h): Normal | Respiratory state ([2]; D12 (4-20), 2.0 mg/kg SC q24h): Normal | Body temperature Afternoon ([2]; D12 (4-20), 2.0 mg/kg SC q24h): 38.5 °C | Body temperature Morning ([2]; D13 (4-21), 2.0 mg/kg SC q24h): 38.9 °C | Food intake ([2]; D13 (4-21), 2.0 mg/kg SC q24h): Good | Mental state ([2]; D13 (4-21), 2.0 mg/kg SC q24h): Good | Defecation condition ([2]; D13 (4-21), 2.0 mg/kg SC q24h): Normal | Respiratory state ([2]; D13 (4-21), 2.0 mg/kg SC q24h): Normal | Body temperature Afternoon ([2]; D13 (4-21), 2.0 mg/kg SC q24h): 38.5 °C | Body temperature Morning ([2]; D14 (4-22), 2.0 mg/kg SC q24h): 38.4 °C | body weight ([2]; D14 (4-22), 2.0 mg/kg SC q24h): 2.75 kg body weight | Food intake ([2]; D14 (4-22), 2.0 mg/kg SC q24h): Good | Mental state ([2]; D14 (4-22), 2.0 mg/kg SC q24h): Good | Defecation condition ([2]; D14 (4-22), 2.0 mg/kg SC q24h): Normal | Respiratory state ([2]; D14 (4-22), 2.0 mg/kg SC q24h): Normal | Body temperature Afternoon ([2]; D14 (4-22), 2.0 mg/kg SC q24h): 38.4 °C | clinical response (appetite, mental state, weight) ([2]; after 2 weeks of treatment, 2.0 mg/kg SC q24h): remarkable clinical response with improved appetite and mental state, and weight gain | body weight increase ([2]; during and after the treatment (D1-14, 2.0 mg/kg SC q24h)): 9% | hydrothorax (chest X-ray) ([2]; since about 7 days after the treatment, 2.0 mg/kg SC q24h): completely regressed | body temperature maintained in the normal range ([2]; throughout the treatment (D1-14, 2.0 mg/kg SC q24h), no fever at enrollment): 38-38.5 °C
